Laboratory results published in paper PMC10339456, “Exploring the 5-Substituted 2-Aminobenzothiazole-Based DNA Gyrase B Inhibitors Active against ESKAPE Pathogens” (ACS Omega, 2023).
Read-outs that look alike come from different tables or passages of the source.

Key:
[1] = test system: A. baumannii ATCC17978; assay: MIC, broth microdilution (CLSI); format: cell-based; conditions: Acinetobacter baumannii
Method: (§1) Antimicrobial assays (MICs) were performed by a standard serial broth microdilution method. For details on antimicrobial assays, see the Supporting Information.

[2] = test system: S. aureus (MRSA) ATCC43300; assay: MIC, broth microdilution (CLSI); format: cell-based; conditions: Staphylococcus aureus
Method: as §1

[3] = test system: S. aureus (VISA) ATCC700699; assay: MIC, broth microdilution (CLSI); format: cell-based; conditions: Staphylococcus aureus
Method: as §1

[4] = test system: P. aeruginosa ATCC27853; assay: MIC, broth microdilution (CLSI); format: cell-based; conditions: Pseudomonas aeruginosa
Method: as §1

[5] = test system: Enterobacter cloacae ATCC13047; assay: MIC, broth microdilution (CLSI); format: cell-based
Method: as §1

[6] = test system: E. coli ATCC25922; assay: MIC, broth microdilution (CLSI); format: cell-based; conditions: Escherichia coli
Method: as §1

[7] = test system: E. faecium ATCC700221; assay: MIC, broth microdilution (CLSI); format: cell-based; conditions: Enterococcus faecium
Method: as §1

[8] = test system: S. aureus ATCC29213; assay: MIC, broth microdilution (CLSI); format: cell-based; conditions: Staphylococcus aureus
Method: as §1

[9] = test system: K. pneumoniae ATCC10031; assay: MIC, broth microdilution (CLSI); format: cell-based; conditions: Klebsiella pneumoniae
Method: as §1

[10] = target: T1, E. coli Topo IV (Escherichia coli, UniProt P20083); assay: Topo IV relaxation assay (Inspiralis kit); format: biochemical
T1 construct: purchased Inspiralis Limited, Norwich, UK
Method: (§2) Compounds B, C, D, and E were evaluated against DNA gyrase from E. coli supercoiling and against Topo IV in relaxation assay. The results are presented in Table 1 and Figure S5 as concentrations of compounds that inhibit the enzyme activity by 50% (IC50 values). […] Compounds B, C, D, and E were tested for antibacterial activity against Gram-positive and Gram-negative bacteria, including ESKAPE pathogens.
(§3) Commercially available assay kits (Inspiralis Limited, Norwich, UK) were used for the determination of IC50 values for test compounds for inhibition of DNA gyrase supercoiling and Topo IV and TopoIIα relaxation. Assays were performed according to previously reported procedures.[25] For details on enzyme assays, see the Supporting Information.

[11] = test system: Gram-negative strains; assay: MIC, summary in text over Gram-negative strains; format: cell-based; conditions: for MIC range against Gram-negative strains: E. coli, A. baumannii, P. aeruginosa, and K. pneumoniae; for MIC: read-out: MIC against Gram-negative strains (no activity)
Method: (§4) To evaluate selectivity against a related human target, compounds D and E were tested for their inhibitory activity on human topoisomerase IIα.
as §1

[12] = test system: Gram-positives S. aureus, MRSA, VISA, and E. faecium; assay: MIC, summary over Gram-positive strains; format: cell-based; conditions: most strains
Method: as §4, §1

[13] = target: T2, E. coli gyrase (Escherichia coli, UniProt P0AES6); assay: DNA gyrase supercoiling assay (Inspiralis kit); format: biochemical; conditions: mean ± SD of three independent experiments
T2 construct: purchased Inspiralis Limited, Norwich, UK
Method: as §2, §3

[14] = target: T3, human topoisomerase IIα (Homo sapiens, UniProt P11388); assay: Human topoisomerase IIα relaxation assay (selectivity); format: biochemical; conditions: read-out: enzyme residual activity human topoisomerase IIα
T3 construct: purchased Inspiralis Limited, Norwich, UK
Method: as §4, §3

[15] = test system: S. aureus ATCC29213; parameters: method as in PMID 33524686; conditions: cited from earlier work
[16] = test system: K. pneumoniae ATCC10031; parameters: method as in PMID 33524686; conditions: cited from earlier work
[17] = test system: Gram-negative strains; parameters: method as in PMID 33524686; conditions: cited from earlier work
[18] = test system: P. aeruginosa ATCC27853; parameters: method as in PMID 33524686; conditions: cited from earlier work
[19] = test system: A. baumannii ATCC17978; parameters: method as in PMID 33524686; conditions: cited from earlier work
[20] = target: T1, E. coli Topo IV; parameters: method as in PMID 33524686; conditions: relaxation; compound previously prepared and tested; cited from earlier work
[21] = test system: E. coli ATCC25922; parameters: method as in PMID 33524686; conditions: cited from earlier work
[22] = test system: S. aureus (MRSA) ATCC43300; parameters: method as in PMID 33524686; conditions: cited from earlier work
[23] = target: T2, E. coli gyrase; parameters: method as in PMID 33524686; conditions: supercoiling; compound previously prepared and tested; cited from earlier work
[24] = mean ± SD of three independent experiments, read-out: IC50 E. coli Topo IV

T1 sequence (P20083 whole entry): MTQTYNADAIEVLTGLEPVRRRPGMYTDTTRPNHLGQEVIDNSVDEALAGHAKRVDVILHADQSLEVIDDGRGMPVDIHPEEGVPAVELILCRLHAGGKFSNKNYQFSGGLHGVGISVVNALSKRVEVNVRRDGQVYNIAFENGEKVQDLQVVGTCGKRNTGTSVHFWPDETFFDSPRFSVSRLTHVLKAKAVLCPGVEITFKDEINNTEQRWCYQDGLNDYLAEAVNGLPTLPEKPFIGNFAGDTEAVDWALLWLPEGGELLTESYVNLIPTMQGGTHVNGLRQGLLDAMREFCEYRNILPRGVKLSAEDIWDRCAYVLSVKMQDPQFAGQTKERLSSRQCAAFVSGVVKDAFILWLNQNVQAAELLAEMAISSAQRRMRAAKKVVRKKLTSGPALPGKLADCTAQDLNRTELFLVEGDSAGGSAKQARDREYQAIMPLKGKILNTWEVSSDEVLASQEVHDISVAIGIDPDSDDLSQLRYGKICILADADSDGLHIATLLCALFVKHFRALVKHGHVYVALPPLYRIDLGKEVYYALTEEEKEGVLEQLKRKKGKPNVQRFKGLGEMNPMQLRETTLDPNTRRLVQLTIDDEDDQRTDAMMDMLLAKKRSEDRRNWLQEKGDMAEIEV
T1 sequence (P0AFI2 whole entry, further chain): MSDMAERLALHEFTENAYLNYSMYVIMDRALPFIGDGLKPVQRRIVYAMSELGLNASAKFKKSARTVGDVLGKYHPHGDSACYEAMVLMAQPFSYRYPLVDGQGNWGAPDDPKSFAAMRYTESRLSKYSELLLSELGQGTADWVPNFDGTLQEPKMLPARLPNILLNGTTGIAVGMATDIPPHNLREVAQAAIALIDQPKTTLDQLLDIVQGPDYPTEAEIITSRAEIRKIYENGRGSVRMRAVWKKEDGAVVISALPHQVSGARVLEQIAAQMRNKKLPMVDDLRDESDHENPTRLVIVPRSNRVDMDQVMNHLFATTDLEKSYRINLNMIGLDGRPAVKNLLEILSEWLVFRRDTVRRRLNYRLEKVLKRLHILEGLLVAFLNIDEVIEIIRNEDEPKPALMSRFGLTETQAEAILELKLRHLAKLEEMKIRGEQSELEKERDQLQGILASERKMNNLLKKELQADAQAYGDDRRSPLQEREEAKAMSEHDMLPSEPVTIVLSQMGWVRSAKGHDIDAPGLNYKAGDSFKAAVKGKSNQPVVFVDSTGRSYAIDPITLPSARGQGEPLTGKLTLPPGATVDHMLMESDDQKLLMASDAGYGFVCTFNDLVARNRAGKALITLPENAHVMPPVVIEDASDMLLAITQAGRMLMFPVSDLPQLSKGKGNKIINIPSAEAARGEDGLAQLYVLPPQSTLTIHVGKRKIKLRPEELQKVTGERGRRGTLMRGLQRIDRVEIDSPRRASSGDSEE
T3 sequence (P11388 whole entry): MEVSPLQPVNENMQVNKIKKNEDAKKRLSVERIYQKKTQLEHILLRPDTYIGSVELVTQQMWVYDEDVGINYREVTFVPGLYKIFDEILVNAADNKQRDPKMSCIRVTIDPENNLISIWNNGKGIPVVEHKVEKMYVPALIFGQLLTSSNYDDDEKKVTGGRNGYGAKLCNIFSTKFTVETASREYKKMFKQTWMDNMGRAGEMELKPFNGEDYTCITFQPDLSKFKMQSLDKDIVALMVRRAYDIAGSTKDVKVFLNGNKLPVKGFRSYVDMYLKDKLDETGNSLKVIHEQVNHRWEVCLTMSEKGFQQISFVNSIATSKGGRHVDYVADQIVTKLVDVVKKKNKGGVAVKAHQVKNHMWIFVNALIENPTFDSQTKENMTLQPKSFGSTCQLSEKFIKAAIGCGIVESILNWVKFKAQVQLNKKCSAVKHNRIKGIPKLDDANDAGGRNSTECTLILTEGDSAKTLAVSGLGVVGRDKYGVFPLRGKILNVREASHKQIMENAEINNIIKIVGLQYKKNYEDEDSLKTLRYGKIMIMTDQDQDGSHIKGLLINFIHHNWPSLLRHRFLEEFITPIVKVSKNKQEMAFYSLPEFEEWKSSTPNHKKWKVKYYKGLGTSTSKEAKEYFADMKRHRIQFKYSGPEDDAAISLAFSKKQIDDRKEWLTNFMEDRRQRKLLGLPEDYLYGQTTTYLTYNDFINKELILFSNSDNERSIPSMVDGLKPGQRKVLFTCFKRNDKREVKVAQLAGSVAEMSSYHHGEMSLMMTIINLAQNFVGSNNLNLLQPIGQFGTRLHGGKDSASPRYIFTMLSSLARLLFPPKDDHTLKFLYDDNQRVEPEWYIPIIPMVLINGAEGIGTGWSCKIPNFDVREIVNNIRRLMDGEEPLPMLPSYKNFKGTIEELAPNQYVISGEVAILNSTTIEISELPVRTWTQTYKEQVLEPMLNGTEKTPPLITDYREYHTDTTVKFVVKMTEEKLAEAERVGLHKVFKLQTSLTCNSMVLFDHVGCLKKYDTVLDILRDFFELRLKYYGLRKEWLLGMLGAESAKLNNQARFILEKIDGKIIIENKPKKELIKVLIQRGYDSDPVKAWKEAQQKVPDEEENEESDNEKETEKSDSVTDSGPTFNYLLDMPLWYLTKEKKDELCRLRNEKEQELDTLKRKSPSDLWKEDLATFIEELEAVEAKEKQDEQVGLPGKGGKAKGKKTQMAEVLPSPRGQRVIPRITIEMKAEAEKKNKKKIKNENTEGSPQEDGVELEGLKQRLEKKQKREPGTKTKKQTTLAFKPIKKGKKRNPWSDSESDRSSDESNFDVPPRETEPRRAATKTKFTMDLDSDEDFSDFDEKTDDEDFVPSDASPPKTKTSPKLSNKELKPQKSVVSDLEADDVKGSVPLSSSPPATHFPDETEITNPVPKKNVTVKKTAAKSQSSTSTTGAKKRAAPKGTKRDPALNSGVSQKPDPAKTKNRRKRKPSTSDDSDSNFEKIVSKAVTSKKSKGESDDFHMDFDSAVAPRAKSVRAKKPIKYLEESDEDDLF

SMILES | MIC ([1]; first value of cell) [µg/mL] | MIC ([1]; second value of cell) [µM] | MIC ([2]; first value of cell) [µg/mL] | MIC ([2]; second value of cell) [µM] | MIC ([3]; first value of cell) [µg/mL] | MIC ([3]; second value of cell) [µM] | MIC ([4]; first value of cell) [µg/mL] | MIC ([4]; second value of cell) [µM] | MIC ([5]; first value of cell) [µg/mL] | MIC ([5]; second value of cell) [µM] | MIC ([6]; first value of cell) [µg/mL] | MIC ([6]; second value of cell) [µM] | MIC ([7]; first value of cell) [µg/mL] | MIC ([7]; second value of cell) [µM] | MIC ([8]; first value of cell) [µg/mL] | MIC ([8]; second value of cell) [µM] | MIC ([9]; first value of cell) [µg/mL] | MIC ([9]; second value of cell) [µM] | IC50 [10, 24] [nM] | IC50 [13] [nM] | also measured
Cc1[nH]c(C(=O)Nc2nc3cc(NCc4ccccc4)c(C(=O)O)cc3s2)c(Cl)c1Cl [Compound D] | 8 | 17 | < 0.03 | < 0.07 | < 0.03 | < 0.07 | 8 | 17 | > 64 | > 135 | 16 | 34 | < 0.13 | < 0.26 | < 0.03 | < 0.07 | 4 | 8.4 | 293 ± 155 | < 10 | MIC range against Gram-negative strains [11]: 4 to 16 µg/mL; MIC [12]: < 0.03 µg/mL; remaining activity at 100 µM [14]: 100%
COCCCNc1cc2nc(NC(=O)c3[nH]c(C)c(Cl)c3Cl)sc2cc1C(=O)O [Compound E] | 4 | 9 | < 0.03 | < 0.07 | < 0.03 | < 0.07 | 16 | 35 | > 64 | > 140 | 8 | 18 | < 0.06 | < 0.14 | < 0.03 | < 0.07 | 4 | 9 | 210 | < 10 | MIC range against Gram-negative strains [11]: 4 to 16 µg/mL; MIC [12]: < 0.03 µg/mL; remaining activity at 100 µM [14]: 55%
CC(=O)N(Cc1ccccc1)c1cc2nc(NC(=O)c3[nH]c(C)c(Cl)c3Cl)sc2cc1C(=O)O [Compound C] | > 64 | > 124 | 8 | 16 | – | – | > 64 | > 124 | > 64 | > 124 | > 64 | > 124 | – | – | 8 | 16 | 64 | 124 | – | 71 | IC50 ([10]; E. coli, read-out: IC50 Topo IV): 4000 nM; MIC [11]: > 64 µg/mL
Cc1[nH]c(C(=O)Nc2nc3c(C)c(F)c(C(=O)O)cc3s2)c(Cl)c1Cl [Compound B] | > 64 | > 159 | 0.25 | 0.6 | – | – | > 64 | > 159 | > 64 | > 159 | > 64 | > 159 | – | – | 0.5 | 1.2 | > 64 | > 159 | 2000 ± 900 | 40 | MIC [11]: > 64 µg/mL
Cc1[nH]c(C(=O)Nc2nc3cc(O)c(C(=O)O)cc3s2)c(Cl)c1Cl [Compound A] | – | – | – | – | – | – | – | – | – | – | – | – | – | – | – | – | – | – | – | – | MIC S. aureus ATCC29213 ([15]; first value of cell): 16 µg/mL; MIC S. aureus ATCC29213 ([15]; second value of cell): 41 µM; MIC K. pneumoniae ATCC10031 ([16]; first value of cell): 8 µg/mL; MIC K. pneumoniae ATCC10031 ([16]; second value of cell): 21 µM; MIC against Gram-negative bacterial strains (inactive) [17]: > 64 µg/mL; MIC P. aeruginosa ATCC27853 ([18]; first value of cell): > 64 µg/mL; MIC P. aeruginosa ATCC27853 ([18]; second value of cell): > 166 µM; MIC A. baumannii ATCC17978 ([19]; first value of cell): > 64 µg/mL; MIC A. baumannii ATCC17978 ([19]; second value of cell): > 166 µM; IC50 [20]: 95 nM; MIC E. coli ATCC25922 ([21]; first value of cell): > 64 µg/mL; MIC E. coli ATCC25922 ([21]; second value of cell): > 166 µM; MIC S. aureus (MRSA) ATCC43300 ([22]; first value of cell): 4 µg/mL; MIC S. aureus (MRSA) ATCC43300 ([22]; second value of cell): 10 µM; IC50 [23]: < 10 nM
